This note sets out measurements from paper PMC7728545 (Cell, 2020).

Read-outs that look alike come from different tables or passages of the source.

For one data set, the target named is T1, AbCdnD (Acinetobacter sp. ATCC 27244, UniProt C0VHD2).
T1 sequence (C0VHD2 1-343): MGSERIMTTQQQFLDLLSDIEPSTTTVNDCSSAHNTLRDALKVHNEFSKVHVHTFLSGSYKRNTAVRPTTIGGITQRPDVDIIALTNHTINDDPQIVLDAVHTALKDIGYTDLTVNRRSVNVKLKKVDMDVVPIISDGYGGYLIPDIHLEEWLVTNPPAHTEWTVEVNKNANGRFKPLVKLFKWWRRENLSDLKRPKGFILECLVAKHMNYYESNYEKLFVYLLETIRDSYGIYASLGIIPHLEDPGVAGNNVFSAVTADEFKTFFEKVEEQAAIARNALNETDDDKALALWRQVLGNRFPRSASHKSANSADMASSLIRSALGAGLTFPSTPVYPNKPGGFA
Kind of data set: cyclic oligonucleotide synthesis. It is filed as biochemical. Particulars: K+, Mg2+, Mn2+, pH 9.0-9.4, 37 °C.

In another data set the target is EcCdnD (Enterobacter hormaechei, UniProt P0DSP4). It is filed as biochemical. Particulars: 10 mM MgCl2, 50 mM CAPSO pH 9.4, 37 °C.
A further data set deals with AbCap4 K69A (Acinetobacter baumannii, UniProt C0VHC9 1-462, K69A). Kind of data set: EMSA.
For a further data set, the target named is T2, EcCap4 K74A (Enterobacter cloacae, UniProt P0DUD5 1-499, K74A).
T2 sequence: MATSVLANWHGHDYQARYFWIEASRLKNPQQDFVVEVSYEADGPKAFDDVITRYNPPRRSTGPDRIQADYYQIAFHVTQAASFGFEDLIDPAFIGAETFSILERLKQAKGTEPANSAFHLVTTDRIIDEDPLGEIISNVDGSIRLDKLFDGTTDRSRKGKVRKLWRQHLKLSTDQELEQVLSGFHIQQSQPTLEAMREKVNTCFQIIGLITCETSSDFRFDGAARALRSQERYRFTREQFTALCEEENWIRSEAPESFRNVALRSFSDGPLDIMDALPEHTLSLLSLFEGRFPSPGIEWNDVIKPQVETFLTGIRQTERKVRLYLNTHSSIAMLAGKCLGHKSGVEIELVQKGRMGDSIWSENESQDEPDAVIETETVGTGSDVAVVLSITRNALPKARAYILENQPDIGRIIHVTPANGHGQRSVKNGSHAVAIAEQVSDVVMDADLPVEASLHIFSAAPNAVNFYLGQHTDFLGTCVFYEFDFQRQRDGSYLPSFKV
Kind of data set: EMSA.

In the case of `Nc1ncnc2c1ncn2[C@@H]1O[C@H](COP(=O)(O)OP(=O)(O)OP(=O)(O)O)[C@@H](O)[C@H]1O` [ATP], on AbCdnD, the “cyclic oligonucleotide synthesis; AbCap4 activation, TLC, HPLC” value is “ATP is necessary and sufficient to allow AbCdnD to synthesize the activating nucleotide second messenger”. Further, the “TLC with 32P-label” value on EcCdnD (co-substrate GTP, labelled compound) is listed as “EcCdnD: ATP, GTP”.

On to `Nc1nc2c(ncn2[C@@H]2O[C@H](COP(=O)(O)OP(=O)(O)OP(=O)(O)O)[C@@H](O)[C@H]2O)c(=O)[nH]1` [GTP], for which the “TLC with 32P-label” value at EcCdnD (co-substrate ATP) is on record as “EcCdnD: ATP, GTP”.

B1: DNA45 (45 bp DNA) (dsDNA)
DNA 1: TACAGATCTACTAGTGATCTATGACTGATCTGTACATGATCTACA
DNA 2: TGTAGATCATGTACAGATCAGTCATAGATCACTAGTAGATCTGTA
As to B1, the binding result with AbCap4 K69A and with EcCap4 K74A was “binds” each time.
